# Patent publication US20020137929A1, “1 - (3-heterocyclylphenyl) isothiourea, -isourea, -guanidine and -amidine herbicidal agents” (Intellectual Property Department, BASF Aktiengesellschaft, priority 1998, published 2002)
# Legend:
# [1] = system: IPOHE (Morningglory, Ivyleaf); assay: Preemergence herbicidal evaluation; assay type: in vivo, Ipomoea hederacea; settings: rated 4-5 weeks after treatment; for IPOHE rating: preemergence, 0-9 scale
# Summary of the method: (§1)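 Visual 0-9 rating vs control (stand, vigor, malformation, size, chlorosis, overall appearance), scored 4-5 wk after spraying. Seeded soil cups were treated preemergence with compound in aqueous acetone, ~0.0156-0.500 kg/ha equivalent.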
# [2] = system: MOOVA (Monochoria); assay: Preemergence weed control under flooded paddy conditions; assay type: in vivo, Monochoria vaginalis; settings: rated 3-4 weeks after treatment
# Summary of the method: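 Herbicidal effect is scored visually on a 0-9 scale against an untreated control, three to four weeks after compounds are pipetted into the flood water (1.5 to 3 cm deep) over seeds planted in silt loam at 0.5 cm depth. Rates: about 0.0313 to 0.500 kg/ha.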
# [3] = system: TRZAWR (Wheat, Winter, cv Riband); assay: Preemergence herbicidal evaluation; assay type: in vivo, Triticum aestivum; settings: rated 4-5 weeks after treatment; for TRZAWR rating: preemergence, 0-9 scale
# Summary of the method: as §1
# [4] = system: ABUTH (Velvetleaf); assay: Postemergence herbicidal evaluation; assay type: in vivo, Abutilon theophrasti; settings: for ABUTH herbicidal rating: postemergence
# Summary of the method: (§2)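 Rate range approx. 0.0156–0.500 kg/ha. Foliar application at 40 psi to ~2-week seedlings; surfactant 0.5% TWEEN 20 in 50/50 acetone/water. Evaluation 4–5 wk post-treatment by 0–9 visual injury score, means of replicate tests.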
# [5] = system: ORYSAT (Rice, Tebonnet); assay: Postemergence herbicidal evaluation; assay type: in vivo, Oryza sativa, (L.) Tebonnet; settings: for ORYSAT herbicidal rating: postemergence
# Summary of the method: as §2
# [6] = system: SETVI (Foxtail, Green); assay: Postemergence herbicidal evaluation; assay type: in vivo, Setaria viridis; settings: for SETVI herbicidal rating: postemergence
# Summary of the method: as §2
# [7] = system: CYPSE (Flatsedge); assay: Postemergence weed control under flooded paddy conditions; assay type: in vivo, Cyperus serotinus; settings: postemergence weeds
# Summary of the method: (§3)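 Herbicidal effect is judged by eye on a 0–9 scale versus control, 3–4 weeks after dosing. Dosing is into flood water kept 1.5–3 cm over the soil, at about 0.0313–0.500 kg/ha in aqueous/acetone 50/50 v/v, on 3–5 cm weeds and 1.5–2.5-leaf rice seedlings.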
# [8] = system: CYPIR (Rice Flatsedge); assay: as above; assay type: in vivo, Cyperus iria; settings: postemergence weeds
# Summary of the method: as §3
# [9] = system: ZEAMX (Corn, Field); assay: Preemergence herbicidal evaluation; assay type: in vivo, Zea mays; settings: rated 4-5 weeks after treatment; for ZEAMX rating: preemergence, 0-9 scale
# Summary of the method: as §1
# [10] = system: SAGPY (Arrowhead (Pygmaea)); assay: Postemergence weed control under flooded paddy conditions; assay type: in vivo, Sagittaria pygmaea; settings: postemergence weeds
# Summary of the method: as §3
# [11] = system: ECHORC (Watergrass (Calif.)); assay: Preemergence weed control under flooded paddy conditions; assay type: in vivo, Echinochloa oryzoides; settings: rated 3-4 weeks after treatment
# Summary of the method: (§4)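 Ratings on a 0-9 visual scale cover stand, vigor, malformation, size, chlorosis and overall appearance relative to a control, taken three to four weeks post-treatment. Application was into flood water over freshly sown silt loam at roughly 0.0313 to 0.500 kg/ha.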
# [12] = system: GALAP (Galium); assay: Postemergence herbicidal evaluation; assay type: in vivo, Galium aparine; settings: for GALAP herbicidal rating: postemergence
# Summary of the method: as §2
# [13] = system: ECHCG (Barnyardgrass); assay: Postemergence herbicidal evaluation; assay type: in vivo, Echinochloa crus-galli; settings: for ECHCG herbicidal rating: postemergence
# Summary of the method: as §2
# [14] = system: CYPIR (Rice Flatsedge); assay: Preemergence weed control under flooded paddy conditions; assay type: in vivo, Cyperus iria; settings: rated 3-4 weeks after treatment
# Summary of the method: as §4
# [15] = Rate 0.0313 kg/ha, rated 3 to 4 weeks after treatment
# [16] = Rate 0.0625 kg/ha, rated 3 to 4 weeks after treatment
# [17] = Rate 0.1250 kg/ha, rated 3 to 4 weeks after treatment
# [18] = Rate 0.2500 kg/ha, rated 3 to 4 weeks after treatment
# [19] = rate 0.0313 kg/ha, 3-4 weeks after treatment
# [20] = rate 0.0625 kg/ha, 3-4 weeks after treatment
# [21] = rate 0.2500 kg/ha, 3-4 weeks after treatment
# [22] = rate 0.1250 kg/ha, 3-4 weeks after treatment
compound,measurement,setting,value
"CC(C)OC(=O)CC1SC(=Nc2cc(-n3c(=O)cc(C(F)(F)F)n(C)c3=O)c(F)cc2Cl)N(C)C1=O (stereo not shown) [Compound 89, Isopropyl 2-{{2-chloro-5-[3,6-dihydro-3-methyl-2,6-dioxo-4-(trifluoromethyl)-1(2H)-pyrimidinyl]-4-fluorophenyl}imino}-3-methyl-4-oxo-5-thiazolidineacetate]",IPOHE rating,[1]; 0.0156 kg/ha,0.0
same,IPOHE rating,[1]; 0.0313 kg/ha,0.0
same,IPOHE rating,[1]; 0.0625 kg/ha,0.5
same,IPOHE rating,[1]; 0.1250 kg/ha,1.5
same,IPOHE rating,[1]; 0.2500 kg/ha,9.0
same,IPOHE rating,[1]; 0.5000 kg/ha,9.0
same,MOOVA herbicidal effect rating,[2]; 0.0313 kg/ha,9.0
same,MOOVA herbicidal effect rating,[2]; 0.0625 kg/ha,9.0
same,MOOVA herbicidal effect rating,[2]; 0.1250 kg/ha,9.0
same,MOOVA herbicidal effect rating,[2]; 0.2500 kg/ha,9.0
same,TRZAWR rating,[3]; 0.0156 kg/ha,0.0
same,TRZAWR rating,[3]; 0.0313 kg/ha,0.0
same,TRZAWR rating,[3]; 0.0625 kg/ha,0.5
same,TRZAWR rating,[3]; 0.1250 kg/ha,2.0
same,TRZAWR rating,[3]; 0.2500 kg/ha,6.5
same,TRZAWR rating,[3]; 0.5000 kg/ha,9.0
same,ABUTH herbicidal rating,[4]; rate 0.0158 kg/ha,9.0
same,ABUTH herbicidal rating,[4]; rate 0.0313 kg/ha,9.0
same,ABUTH herbicidal rating,[4]; rate 0.0625 kg/ha,9.0
same,ABUTH herbicidal rating,[4]; rate 0.1250 kg/ha,9.0
same,ORYSAT herbicidal rating,[5]; rate 0.0158 kg/ha,1.0
same,ORYSAT herbicidal rating,[5]; rate 0.0313 kg/ha,4.0
same,ORYSAT herbicidal rating,[5]; rate 0.0625 kg/ha,6.5
same,ORYSAT herbicidal rating,[5]; rate 0.1250 kg/ha,8.0
same,SETVI herbicidal rating,[6]; rate 0.0158 kg/ha,7.0
same,SETVI herbicidal rating,[6]; rate 0.0313 kg/ha,9.0
same,SETVI herbicidal rating,[6]; rate 0.0625 kg/ha,9.0
same,SETVI herbicidal rating,[6]; rate 0.1250 kg/ha,9.0
same,Herbicidal rating CYPSE,[7]; [15],0.0
same,Herbicidal rating CYPSE,[7]; [16],0.0
same,Herbicidal rating CYPSE,[7]; [17],4.0
same,Herbicidal rating CYPSE,[7]; [18],6.0
same,Herbicidal rating CYPIR,[8]; [15],0.0
same,Herbicidal rating CYPIR,[8]; [16],0.0
same,Herbicidal rating CYPIR,[8]; [17],2.0
same,Herbicidal rating CYPIR,[8]; [18],4.0
same,ZEAMX rating,[9]; 0.0156 kg/ha,0.0
same,ZEAMX rating,[9]; 0.0313 kg/ha,0.0
same,ZEAMX rating,[9]; 0.0625 kg/ha,1.0
same,ZEAMX rating,[9]; 0.1250 kg/ha,6.5
same,ZEAMX rating,[9]; 0.2500 kg/ha,7.5
same,ZEAMX rating,[9]; 0.5000 kg/ha,9.0
same,Herbicidal rating SAGPY,[10]; [15],4.0
same,Herbicidal rating SAGPY,[10]; [16],5.0
same,Herbicidal rating SAGPY,[10]; [17],9.0
same,Herbicidal rating SAGPY,[10]; [18],9.0
same,ECHORC herbicidal effect rating,[11]; 0.0313 kg/ha,3.0
same,ECHORC herbicidal effect rating,[11]; 0.0625 kg/ha,4.0
same,ECHORC herbicidal effect rating,[11]; 0.1250 kg/ha,5.0
same,ECHORC herbicidal effect rating,[11]; 0.2500 kg/ha,6.0
same,GALAP herbicidal rating,[12]; rate 0.0158 kg/ha,3.0
same,GALAP herbicidal rating,[12]; rate 0.0313 kg/ha,4.0
same,GALAP herbicidal rating,[12]; rate 0.0625 kg/ha,5.0
same,GALAP herbicidal rating,[12]; rate 0.1250 kg/ha,9.0
same,ECHCG herbicidal rating,[13]; rate 0.0158 kg/ha,2.0
same,ECHCG herbicidal rating,[13]; rate 0.0313 kg/ha,9.0
same,ECHCG herbicidal rating,[13]; rate 0.0625 kg/ha,9.0
same,ECHCG herbicidal rating,[13]; rate 0.1250 kg/ha,9.0
same,CYPIR herbicidal effect rating,[14]; 0.0313 kg/ha,0.0
same,CYPIR herbicidal effect rating,[14]; 0.0625 kg/ha,0.0
same,CYPIR herbicidal effect rating,[14]; 0.1250 kg/ha,2.0
same,CYPIR herbicidal effect rating,[14]; 0.2500 kg/ha,4.0
"CCOC(=O)CN1C(=O)C(CCO)S/C1=N/c1cc(-n2c(=O)cc(C(F)(F)F)n(C)c2=O)c(F)cc1Cl (stereo not shown) [Compound 49, Ethyl 2-{{2-chloro-5-[3,6-dihydro-3-methyl-2,6-dioxo-4-(trifluoromethyl)-1(2H)-pyrimidinyl]-4-fluorophenyl}imino}-5-(hydroxyethyl)-4-oxo-3-thiazolidineacetate]",Preemergence herbicidal rating IPOHE,[1]; rate 0.0156 kg/ha,0.0
same,Preemergence herbicidal rating IPOHE,[1]; rate 0.0313 kg/ha,0.0
same,Preemergence herbicidal rating IPOHE,[1]; rate 0.0625 kg/ha,2.0
same,Preemergence herbicidal rating IPOHE,[1]; rate 0.1250 kg/ha,9.0
same,Preemergence herbicidal rating IPOHE,[1]; rate 0.2500 kg/ha,9.0
same,Herbicidal rating MOOVA,[2]; 0.0313 kg/ha,9.0
same,Herbicidal rating MOOVA,[2]; 0.0625 kg/ha,9.0
same,Herbicidal rating MOOVA,[2]; 0.1250 kg/ha,9.0
same,Herbicidal rating MOOVA,[2]; 0.2500 kg/ha,9.0
same,Preemergence herbicidal rating TRZAWR,[3]; rate 0.0156 kg/ha,0.0
same,Preemergence herbicidal rating TRZAWR,[3]; rate 0.0313 kg/ha,0.0
same,Preemergence herbicidal rating TRZAWR,[3]; rate 0.0625 kg/ha,0.0
same,Preemergence herbicidal rating TRZAWR,[3]; rate 0.1250 kg/ha,0.0
same,Preemergence herbicidal rating TRZAWR,[3]; rate 0.2500 kg/ha,2.0
same,Postemergence herbicidal rating ABUTH,[4]; Rate 0.0313 kg/ha,9.0
same,Postemergence herbicidal rating ABUTH,[4]; Rate 0.0625 kg/ha,9.0
same,Postemergence herbicidal rating ABUTH,[4]; rate 0.0156 kg/ha,9.0
same,Postemergence herbicidal rating ORYSAT,[5]; Rate 0.0313 kg/ha,2.5
same,Postemergence herbicidal rating ORYSAT,[5]; Rate 0.0625 kg/ha,3.0
same,Postemergence herbicidal rating ORYSAT,[5]; rate 0.0156 kg/ha,1.0
same,Postemergence herbicidal rating SETVI,[6]; Rate 0.0313 kg/ha,4.0
same,Postemergence herbicidal rating SETVI,[6]; Rate 0.0625 kg/ha,7.0
same,Postemergence herbicidal rating SETVI,[6]; rate 0.0156 kg/ha,3.0
same,Herbicidal rating CYPSE,[7]; [19],2.0
same,Herbicidal rating CYPSE,[7]; [20],3.0
same,Herbicidal rating CYPSE,[7]; [21],4.0
same,Herbicidal rating CYPIR,[8]; [19],0.0
same,Herbicidal rating CYPIR,[8]; [20],0.0
same,Herbicidal rating CYPIR,[8]; [22],2.0
same,Herbicidal rating CYPIR,[8]; [21],7.0
same,Preemergence herbicidal rating ZEAMX,[9]; rate 0.0156 kg/ha,0.0
same,Preemergence herbicidal rating ZEAMX,[9]; rate 0.0313 kg/ha,0.0
same,Preemergence herbicidal rating ZEAMX,[9]; rate 0.0625 kg/ha,0.0
same,Preemergence herbicidal rating ZEAMX,[9]; rate 0.1250 kg/ha,3.0
same,Preemergence herbicidal rating ZEAMX,[9]; rate 0.2500 kg/ha,3.0
same,Herbicidal rating SAGPY,[10]; [19],2.0
same,Herbicidal rating SAGPY,[10]; [20],4.0
same,Herbicidal rating SAGPY,[10]; [22],6.0
same,Herbicidal rating SAGPY,[10]; [21],7.0
same,Herbicidal rating ECHORC,[11]; 0.0313 kg/ha,0.0
same,Herbicidal rating ECHORC,[11]; 0.0625 kg/ha,2.0
same,Herbicidal rating ECHORC,[11]; 0.1250 kg/ha,5.0
same,Herbicidal rating ECHORC,[11]; 0.2500 kg/ha,7.0
same,Postemergence herbicidal rating GALAP,[12]; Rate 0.0313 kg/ha,4.0
same,Postemergence herbicidal rating GALAP,[12]; Rate 0.0625 kg/ha,4.0
same,Postemergence herbicidal rating GALAP,[12]; rate 0.0156 kg/ha,2.0
same,Postemergence herbicidal rating ECHCG,[13]; Rate 0.0313 kg/ha,0.0
same,Postemergence herbicidal rating ECHCG,[13]; Rate 0.0625 kg/ha,0.0
same,Postemergence herbicidal rating ECHCG,[13]; rate 0.0156 kg/ha,0.0
same,Herbicidal rating CYPIR,[14]; 0.0313 kg/ha,0.0
same,Herbicidal rating CYPIR,[14]; 0.0625 kg/ha,0.0
same,Herbicidal rating CYPIR,[14]; 0.1250 kg/ha,2.0
same,Herbicidal rating CYPIR,[14]; 0.2500 kg/ha,7.0
